Earlier results, collected in patent US8460861B2, “Method for producing hydrogen-containing fluid able to be used in a living organism” (MIZ Co. Ltd., priority 2009, dated 2013).

Conditions: 20 C degrees under 1 barometric pressure

saturation concentration: 1.6 ppm
SMILES: [HH] [molecular hydrogen]
